{"source": "patent US6504031B1", "about": "“Naphthamidine urokinase inhibitors” (priority 1998, dated 2003)", "origin": "cited, not measured here", "key": {"tumor metastasis": {"tested_on": "tumor metastasis", "conditions": "Anticancer Res. 1988, 8, 1373-1376"}, "angiogenesis": {"tested_on": "angiogenesis", "conditions": "J. Cell Biol. 1991, 115[3 Pt 2], 402a"}}}
{"smiles": "N=C(N)NC(=O)c1nc(Cl)c(N)nc1N", "note": "[Amiloride]", "values": [{"measurement": "inhibition of tumor metastasis in vivo", "setting": "tumor metastasis", "result": "inhibit tumor metastasis"}, {"measurement": "inhibition of angiogenesis in vitro", "setting": "angiogenesis", "result": "inhibit"}]}
